The results in this text go back to ChEMBL document CHEMBL5528065, “Structure-Activity Relationship of a Pyrrole Based Series of PfPKG Inhibitors as Anti-Malarials” (J Med Chem, 2024).

A value given as a limit tells only on which side of the number the result lay.

Data set [1] in a line: Inhibition of recombinant Plasmodium falciparum PKG using FAM-PKA peptide as fluorescent substrate preincubated for 15 mins followed by substrate addition measured after 1 hr by fluorescence polarization based IMAP assay.
Data set [2] concerns Plasmodium falciparum. The experiment in a line: Antimalarial activity against drug-sensitive Plasmodium falciparum 3D7 infected in human erythrocytes assessed as reduction in parasitemia incubated for 72 hrs by SYBR green I and Mitotracker deep red dye based flow cytometric analysis. Format: functional, organism-based.
Data set [3] has as its system Plasmodium falciparum. The experiment in a line: Antimalarial activity against Plasmodium falciparum expressing PKG T618Q mutant infected in human erythrocytes assessed as reduction in parasitemia incubated for 72 hrs by SYBR green I and Mitotracker deep red dye based flow cytometric analysis. In kind it is functional, organism-based.
Another data set relates to Plasmodium berghei. Description: Antimalarial activity against Plasmodium berghei sporozoites expressing Luciferase infected in human HepG2 cells assessed as reduction in parasite growth incubated for 48 hrs by ONE-Glo luciferase assay. In kind it is functional, organism-based.
The species entered for a further data set is Homo sapiens. The experiment in a line: Inhibition of human PKG using FAM-IP3R peptide as fluorescent substrate at 10 uM preincubated for 15 mins followed by substrate addition measured after 1 hr by fluorescence polarization based IMAP assay relative to control. Conditions: time 75.0 min.
Data set [4] in a line: Aqueous solubility of compound in PBS at pH 7.4 incubated for 90 mins by UV spectrophotometric analysis. In kind it is physicochemical.
Data set [5] is described as follows: Half life in CD-1 mouse liver microsomes in presence of NADPH incubated for 60 mins by LC-MS/MS analysis. Format: ADME, Microsome.
Data set [6] in a line: Intrinsic clearance in CD-1 mouse liver microsomes in presence of NADPH incubated for 60 mins by LC-MS/MS analysis. In kind it is ADME, Microsome. As to conditions: read-out: CLH.
A short description of data set [7]: Stability in CD-1 mouse liver microsomes assessed as remaining compound in absence of NADPH incubated for 60 mins by LC-MS/MS analysis. In kind it is ADME, Microsome. As to conditions: read-out: Stability.
A short description of data set [8]: Half life in human liver microsomes in presence of NADPH incubated for 60 mins by LC-MS/MS analysis. In kind it is ADME, Microsome.
Data set [9] can be described thus: Intrinsic clearance in human liver microsomes in presence of NADPH incubated for 60 mins by LC-MS/MS analysis. As to conditions: read-out: CLH. Format: ADME, Microsome.
Data set [10] in a line: Stability in human liver microsomes assessed as remaining compound in absence of NADPH incubated for 60 mins by LC-MS/MS analysis. In kind it is ADME, Microsome. Conditions: read-out: Stability.
Data set [11] is described as follows: Protein binding in C57BL/6 mouse plasma assessed as unbound fraction incubated for 22 hrs by LC-MS/MS analysis. Format: ADME, cell-free.
A short description of data set [12]: Protein binding in CD-1 mouse liver microsomes assessed as unbound fraction incubated for 17 hrs by LC-MS analysis. In kind it is ADME, Microsome.
The target in another data set is Cytochrome P450 3A4 (Homo sapiens, UniProt P08684). Description: Inhibition of human CYP3A4 expressed in baculovirus infected insect cells using midazolam as substrate incubated for 30 mins in presence of NADPH by UPLC-MS analysis. Format: ADME.
Another data set deals with Cytochrome P450 2D6 (Homo sapiens, UniProt P10635). The experiment in a line: Inhibition of human CYP2D6 expressed in baculovirus infected insect cells using AMMC as substrate incubated for 40 mins in presence of NADPH by UPLC-MS analysis. In kind it is ADME.
In the next data set the target is Cytochrome P450 2C9 (Homo sapiens, UniProt P11712). The experiment in a line: Inhibition of human CYP2C9 expressed in baculovirus infected insect cells using MFC as substrate incubated for 30 mins in presence of NADPH by UPLC-MS analysis. In kind it is ADME.
Data set [13] deals with Voltage-gated inwardly rectifying potassium channel KCNH2 (Homo sapiens, UniProt Q12809). The experiment in a line: Inhibition of hERG expressed in HEK293 cells incubated for 30 mins by FluxOR dye based fluorescence analysis. Format: toxicity, cell-based.
The nature of data set [14]: Apparent permeability in human Caco-2 cells incubated for 120 mins by LC-MS/MS analysis. Format: ADME, cell-based.
The nature of data set [15]: Efflux ratio of apparent permeability from basolateral to apical side over apical to basolateral side in human Caco-2 cells incubated for 120 mins by LC-MS/MS analysis. In kind it is ADME, cell-based.
Setting [16] is: Plasmodium falciparum, 3D7, 72 h.
[17] abbreviates: Plasmodium berghei, HepG2, 48 h.

Chain of Cytochrome P450 2C9 (P11712 whole entry): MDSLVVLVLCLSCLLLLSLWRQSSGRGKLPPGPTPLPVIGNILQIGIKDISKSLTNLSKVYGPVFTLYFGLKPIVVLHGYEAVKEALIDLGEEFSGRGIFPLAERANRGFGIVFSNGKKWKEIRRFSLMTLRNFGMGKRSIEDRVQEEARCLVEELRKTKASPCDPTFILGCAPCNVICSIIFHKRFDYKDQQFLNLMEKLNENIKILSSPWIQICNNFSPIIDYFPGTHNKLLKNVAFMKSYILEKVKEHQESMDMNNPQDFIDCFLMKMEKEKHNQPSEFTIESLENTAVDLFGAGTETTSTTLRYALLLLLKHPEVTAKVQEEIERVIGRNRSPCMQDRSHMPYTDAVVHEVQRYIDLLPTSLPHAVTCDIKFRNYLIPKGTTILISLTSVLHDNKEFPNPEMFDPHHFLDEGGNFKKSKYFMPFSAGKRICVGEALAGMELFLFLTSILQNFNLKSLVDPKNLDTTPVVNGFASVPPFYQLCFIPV
Chain of Cytochrome P450 3A4 (P08684 whole entry): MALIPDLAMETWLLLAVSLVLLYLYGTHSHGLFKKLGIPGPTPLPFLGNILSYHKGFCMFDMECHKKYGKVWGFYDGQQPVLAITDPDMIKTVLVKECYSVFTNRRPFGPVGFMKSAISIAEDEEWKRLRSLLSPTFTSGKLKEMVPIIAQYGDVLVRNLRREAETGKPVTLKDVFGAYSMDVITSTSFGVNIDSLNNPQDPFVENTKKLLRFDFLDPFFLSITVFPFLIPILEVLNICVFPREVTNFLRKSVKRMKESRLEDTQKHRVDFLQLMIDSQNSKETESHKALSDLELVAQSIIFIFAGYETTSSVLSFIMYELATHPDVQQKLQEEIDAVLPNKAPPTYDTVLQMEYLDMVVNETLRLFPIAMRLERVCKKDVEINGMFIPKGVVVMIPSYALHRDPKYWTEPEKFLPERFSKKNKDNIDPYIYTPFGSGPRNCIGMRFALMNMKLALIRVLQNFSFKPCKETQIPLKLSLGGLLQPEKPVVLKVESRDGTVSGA
Chain of Voltage-gated inwardly rectifying potassium channel KCNH2 (Q12809 whole entry): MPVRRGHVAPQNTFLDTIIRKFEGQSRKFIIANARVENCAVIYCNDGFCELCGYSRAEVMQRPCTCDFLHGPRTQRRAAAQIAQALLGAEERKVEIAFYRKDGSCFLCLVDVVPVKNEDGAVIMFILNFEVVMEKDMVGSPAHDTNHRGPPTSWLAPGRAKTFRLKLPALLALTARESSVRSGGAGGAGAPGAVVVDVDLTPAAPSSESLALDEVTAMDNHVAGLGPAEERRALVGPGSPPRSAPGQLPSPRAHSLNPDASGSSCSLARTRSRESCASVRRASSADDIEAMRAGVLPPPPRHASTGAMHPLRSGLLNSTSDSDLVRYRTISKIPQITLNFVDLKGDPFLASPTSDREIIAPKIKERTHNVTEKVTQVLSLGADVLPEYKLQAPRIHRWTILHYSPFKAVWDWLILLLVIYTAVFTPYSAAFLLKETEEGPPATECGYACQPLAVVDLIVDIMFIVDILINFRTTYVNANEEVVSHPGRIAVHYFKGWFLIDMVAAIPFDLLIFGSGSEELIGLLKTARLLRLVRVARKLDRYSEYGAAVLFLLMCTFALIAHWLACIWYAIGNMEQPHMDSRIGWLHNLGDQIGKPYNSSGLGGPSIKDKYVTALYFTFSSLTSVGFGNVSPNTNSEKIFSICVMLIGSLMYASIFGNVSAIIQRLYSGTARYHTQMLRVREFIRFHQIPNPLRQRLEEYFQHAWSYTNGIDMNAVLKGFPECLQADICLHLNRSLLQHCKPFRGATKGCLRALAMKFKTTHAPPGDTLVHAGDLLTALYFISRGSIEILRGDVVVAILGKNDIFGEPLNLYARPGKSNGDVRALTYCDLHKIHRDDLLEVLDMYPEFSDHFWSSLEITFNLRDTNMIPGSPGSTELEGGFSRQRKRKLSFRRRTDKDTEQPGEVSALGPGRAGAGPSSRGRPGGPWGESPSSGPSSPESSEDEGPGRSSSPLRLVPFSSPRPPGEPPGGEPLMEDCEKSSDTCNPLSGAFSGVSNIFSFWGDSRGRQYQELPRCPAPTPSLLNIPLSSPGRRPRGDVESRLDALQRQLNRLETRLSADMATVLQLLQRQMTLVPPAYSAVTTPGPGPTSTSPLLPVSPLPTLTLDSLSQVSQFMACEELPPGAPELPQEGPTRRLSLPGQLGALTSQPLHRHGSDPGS
Chain of Cytochrome P450 2D6 (P10635 whole entry): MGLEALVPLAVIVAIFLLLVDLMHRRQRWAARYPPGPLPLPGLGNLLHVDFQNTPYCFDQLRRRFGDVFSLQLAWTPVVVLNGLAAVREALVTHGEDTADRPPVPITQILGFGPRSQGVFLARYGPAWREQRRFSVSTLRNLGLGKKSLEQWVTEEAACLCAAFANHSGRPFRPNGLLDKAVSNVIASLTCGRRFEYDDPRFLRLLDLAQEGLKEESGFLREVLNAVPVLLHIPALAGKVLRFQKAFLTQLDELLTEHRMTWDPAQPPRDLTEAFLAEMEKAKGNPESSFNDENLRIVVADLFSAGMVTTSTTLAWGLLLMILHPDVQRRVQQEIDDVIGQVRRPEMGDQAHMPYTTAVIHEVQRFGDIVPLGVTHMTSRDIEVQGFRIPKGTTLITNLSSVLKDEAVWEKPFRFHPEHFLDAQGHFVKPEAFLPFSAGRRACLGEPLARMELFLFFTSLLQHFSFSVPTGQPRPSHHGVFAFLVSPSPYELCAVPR

Turning to `CC1CN(C)CC[C@H]1c1cc(-c2ccncc2)c(-c2ccc(F)cc2)[nH]1.Cl.Cl` (single isomer, unassigned), the IC50 in [1] was 14 nM; on Cytochrome P450 3A4 it was over 10000 nM; on Cytochrome P450 2D6, 5670 nM; at Cytochrome P450 2C9, over 10000 nM; in data set [13] it was over 10000 nM. For the same molecule, the pIC50 in data set [1] worked out at 7.85. For the same molecule, the EC50 in the data set with Plasmodium falciparum [2] was 170 nM; in the data set with Plasmodium falciparum [3], 900 nM; in the data set with Plasmodium berghei, 350 nM. The inhibition in the data set listed under Homo sapiens came to 0.4%. In data set [4], this molecule registered a solubility at 1.5 h of 190 µM. Also, the half-life in [5] stood at 28.2 min; in data set [8], 57.5 min. Besides, the microsomal CLint in [6] was found to be 49.2 µL/min/mg; in data set [9], 24.1 µL/min/mg. Further, the figures for the remaining at 1 h in data set [7] and in [10] were 104% and 101%, respectively. Also, the fraction unbound at 22 h in [11] was determined as 0.115. In data set [12], the fraction unbound at 17 h amounted to 0.587. Further, in data set [14], the Papp at 2 h stood at 17 ×10⁻⁶ cm/s. Moreover, in [15], the efflux ratio at 2 h amounted to 1.27.

Take `C[C@H]1CN(C)CC[C@@H]1c1cc(-c2ccncc2)c(-c2ccc(F)cc2)[nH]1.Cl.Cl`: the IC50 was 14 nM in data set [1]; 4780 nM on Cytochrome P450 3A4; 6150 nM on Cytochrome P450 2D6; over 10000 nM on Cytochrome P450 2C9; over 10000 nM in data set [13]. Further, the pIC50 in data set [1] is given as 7.87. The EC50 turned out to be 80 nM in the data set with Plasmodium falciparum [2] (setting [16]); 780 nM in the data set with Plasmodium falciparum [3] (Plasmodium falciparum, 72 h); 170 nM in the data set with Plasmodium berghei (setting [17]). Moreover, in the data set listed under Homo sapiens, the inhibition amounted to 30%. For the same molecule, the concentration in solution in data set [4] (solubility at 1.5 h) came to 187 µM. The half-life in data set [5] and in [8] was over 60 min in each case. Besides, the microsomal CLint in data set [6] and in [9] was under 23 µL/min/mg in each case. For the same molecule, the remaining at 1 h in [7] turned out to be 99%; in [10] it was 100%. Further, the fraction unbound at 22 h in data set [11] was 0.122. Besides, the unbound share (fraction unbound) at 17 h in data set [12] is 0.63. Further, in [14], the Papp at 2 h is 22.6 ×10⁻⁶ cm/s. For the same molecule, in data set [15], the efflux ratio at 2 h was 1.52.

Regarding `C[C@@H]1CN(C)CCC1c1cc(-c2ccncc2)c(-c2ccc(F)cc2)[nH]1.Cl.Cl` (single isomer, unassigned), the IC50 in [1] is 9 nM; at Cytochrome P450 3A4, 7480 nM; on Cytochrome P450 2D6 it was 5740 nM; at Cytochrome P450 2C9 it was over 10000 nM; in [13], over 10000 nM. Further, in data set [1], the pIC50 came out at 8.05. In addition, the EC50 with Plasmodium falciparum [2] was 50 nM; with Plasmodium falciparum [3] it was 1220 nM; with Plasmodium berghei, 60 nM. Further, in the data set filed under Homo sapiens, the inhibition is 45%. The solubility at 1.5 h in [4] was found to be 176 µM. For the same molecule, the half-life in [5] is 31.2 min; in data set [8], over 60 min. Also, the microsomal CLint in data set [6] is 44.5 µL/min/mg; in data set [9], under 23 µL/min/mg. Further, the values for the remaining at 1 h in [7] and in data set [10] were 103% and 98%, respectively. The fraction unbound at 22 h in data set [11] stood at 0.119. In data set [12], the fraction unbound at 17 h was determined as 0.518. For the same molecule, the Papp at 2 h in data set [14] was 22.1 ×10⁻⁶ cm/s. In data set [15], the efflux ratio at 2 h came out at 1.59.

In the case of `C[C@@H]1CN(C)CC[C@@H]1c1cc(-c2ccncc2)c(-c2ccc(F)cc2)[nH]1.Cl.Cl`, the IC50 in data set [1] was 13 nM; on Cytochrome P450 3A4, over 10000 nM; on Cytochrome P450 2D6, over 10000 nM; at Cytochrome P450 2C9, over 10000 nM; in data set [13], over 10000 nM. Besides, the pIC50 in [1] is listed as 7.89. Besides, the concentration giving a half-maximal response (EC50) in the data set on Plasmodium falciparum [2] (setting [16]) was determined as 50 nM; with Plasmodium falciparum [3] (Plasmodium falciparum, 72 h), 760 nM; in the data set with Plasmodium berghei (setting [17]) it was 70 nM. In the data set filed under Homo sapiens, the inhibition is -0.3%. Also, in [4], the solubility at 1.5 h turned out to be 181 µM. Also, the half-life in data set [5] is over 60 min; in data set [8] it was 35.7 min. For the same molecule, the microsomal CLint in data set [6] is under 23 µL/min/mg; in data set [9], 38.8 µL/min/mg. Moreover, the remaining at 1 h in data set [7] was 103%; in data set [10] it was 99%. For the same molecule, the fraction unbound at 22 h in [11] worked out at 0.155. In addition, in [12], the fraction unbound at 17 h came to 0.502. Besides, in data set [14], the apparent permeability (Papp) at 2 h amounted to 20.1 ×10⁻⁶ cm/s. Moreover, the efflux ratio at 2 h in [15] was 1.
